{"source": "patent US20050197350A1", "about": "“Novel quinoline, tetrahydroquinazoline, and pyrimidine derivatives and methods of treatment related to the use thereof” (TAISHO PHARMACEUTICAL CO., LTD., priority 2003, published 2005)"}
{"tested_on": "MCH receptors", "assay": "MCH receptor activity class (method not given)", "conditions": "activity class per percent of control at 10^-7 M or IC50"}
{"smiles": "COc1cc([N+](=O)[O-])ccc1C(=O)N[C@H]1CC[C@@H](Nc2nc3c(c(N(C)C)n2)CCCC3)CC1", "note": "[compound 1047]", "class": "2 (Class 2: The value of percent of control at 10^−7 M was from 40% to 60% or the value of IC′50 was from 50 nM to 200 nM.)"}
{"smiles": "CN(C)c1nc(N[C@H]2CC[C@@H](NC(=O)c3ccc(C(F)(F)F)c(F)c3)CC2)nc2c1CCCC2", "note": "[compound 1048]", "class": "3 (Class 3 The value of percent of control at 10^−7 M was more than 60% or the value of IC50 was more than 200 nM.)"}
{"smiles": "CN(C)c1nc(N[C@H]2CC[C@@H](NC(=O)c3ccc([N+](=O)[O-])cc3F)CC2)nc2c1CCCC2", "note": "[compound 1049]", "class": "3 (Class 3 The value of percent of control at 10^−7 M was more than 60% or the value of IC50 was more than 200 nM.)"}
{"smiles": "Cc1cc(C(=O)N[C@H]2CC[C@@H](Nc3nc4c(c(N(C)C)n3)CCCC4)CC2)cc(C)c1[N+](=O)[O-]", "note": "[compound 1050]", "class": "3 (Class 3 The value of percent of control at 10^−7 M was more than 60% or the value of IC50 was more than 200 nM.)"}
{"smiles": "Cc1cc(C)c(C(=O)C(=O)N[C@H]2CC[C@@H](Nc3nc4c(c(N(C)C)n3)CCCC4)CC2)c(C)c1", "note": "[compound 1051]", "class": "3 (Class 3 The value of percent of control at 10^−7 M was more than 60% or the value of IC50 was more than 200 nM.)"}
{"smiles": "CN(C)c1nc(N[C@H]2CC[C@@H](NC(=O)c3ccc4ncsc4c3)CC2)nc2c1CCCC2", "note": "[compound 1054]", "class": "3 (Class 3 The value of percent of control at 10^−7 M was more than 60% or the value of IC50 was more than 200 nM.)"}
{"smiles": "CN(C)c1nc(N[C@H]2CC[C@@H](NC(=O)c3cc(Cl)ccc3O)CC2)nc2c1CCCC2", "note": "[compound 1055]", "class": "1 (Class 1: The value of percent of control at 10^−7 M was less than 40% or the value of IC50 was less than 50 nM.)"}
{"smiles": "CSc1ccc(Cl)c(C(=O)N[C@H]2CC[C@@H](Nc3nc4c(c(N(C)C)n3)CCCC4)CC2)c1", "note": "[compound 1056]", "class": "3 (Class 3 The value of percent of control at 10^−7 M was more than 60% or the value of IC50 was more than 200 nM.)"}
{"smiles": "COc1cccc2cc(C(=O)N[C@H]3CC[C@@H](Nc4nc5c(c(N(C)C)n4)CCCC5)CC3)oc12", "note": "[compound 1057]", "class": "3 (Class 3 The value of percent of control at 10^−7 M was more than 60% or the value of IC50 was more than 200 nM.)"}
{"smiles": "Cc1cccc(C(=O)N[C@H]2CC[C@@H](Nc3nc4c(c(N(C)C)n3)CCCC4)CC2)c1N", "note": "[compound 1058]", "class": "3 (Class 3 The value of percent of control at 10^−7 M was more than 60% or the value of IC50 was more than 200 nM.)"}
{"smiles": "C=CCSc1ncccc1C(=O)N[C@H]1CC[C@@H](Nc2nc3c(c(N(C)C)n2)CCCC3)CC1", "note": "[compound 1059]", "class": "3 (Class 3 The value of percent of control at 10^−7 M was more than 60% or the value of IC50 was more than 200 nM.)"}
{"smiles": "CN(C)c1nc(N[C@H]2CC[C@@H](NC(=O)c3cc(C(C)(C)C)c(O)c(C(C)(C)C)c3)CC2)nc2c1CCCC2", "note": "[compound 1060]", "class": "3 (Class 3 The value of percent of control at 10^−7 M was more than 60% or the value of IC50 was more than 200 nM.)"}
{"smiles": "CN(C)c1nc(N[C@H]2CC[C@@H](CNC(=O)c3ccc(Br)s3)CC2)nc2c1CCCC2", "note": "[compound 1061]", "class": "3 (Class 3 The value of percent of control at 10^−7 M was more than 60% or the value of IC50 was more than 200 nM.)"}
{"smiles": "CN(C)c1nc(N[C@H]2CC[C@@H](CNC(=O)Cc3c(Cl)ccc(Cl)c3Cl)CC2)nc2c1CCCC2", "note": "[compound 1062]", "class": "2 (Class 2: The value of percent of control at 10^−7 M was from 40% to 60% or the value of IC′50 was from 50 nM to 200 nM.)"}
{"smiles": "CN(C)c1nc(N[C@H]2CC[C@@H](CNC(=O)Cc3ccc(F)cc3Cl)CC2)nc2c1CCCC2", "note": "[compound 1063]", "class": "3 (Class 3 The value of percent of control at 10^−7 M was more than 60% or the value of IC50 was more than 200 nM.)"}
{"smiles": "CN(C)c1nc(N[C@H]2CC[C@@H](CNC(=O)c3ccc(-c4ccc(Cl)cc4[N+](=O)[O-])o3)CC2)nc2c1CCCC2", "note": "[compound 1064]", "class": "3 (Class 3 The value of percent of control at 10^−7 M was more than 60% or the value of IC50 was more than 200 nM.)"}
{"smiles": "CN(C)c1nc(N[C@H]2CC[C@@H](CNC(=O)c3ccc(Cl)s3)CC2)nc2c1CCCC2", "note": "[compound 1065]", "class": "3 (Class 3 The value of percent of control at 10^−7 M was more than 60% or the value of IC50 was more than 200 nM.)"}
{"smiles": "CN(C)c1nc(N[C@H]2CC[C@@H](CNC(=O)CCc3ccccc3O)CC2)nc2c1CCCC2", "note": "[compound 1067]", "class": "3 (Class 3 The value of percent of control at 10^−7 M was more than 60% or the value of IC50 was more than 200 nM.)"}
{"smiles": "CN(C)c1nc(N[C@H]2CC[C@@H](CNC(=O)c3ccc(I)o3)CC2)nc2c1CCCC2", "note": "[compound 1068]", "class": "3 (Class 3 The value of percent of control at 10^−7 M was more than 60% or the value of IC50 was more than 200 nM.)"}
{"smiles": "CN(C)c1nc(N[C@H]2CC[C@@H](CNC(=O)Cc3ccccc3I)CC2)nc2c1CCCC2", "note": "[compound 1069]", "class": "3 (Class 3 The value of percent of control at 10^−7 M was more than 60% or the value of IC50 was more than 200 nM.)"}
{"smiles": "CN(C)c1nc(N[C@H]2CC[C@@H](CNC(=O)/C=C/c3cccc([N+](=O)[O-])c3)CC2)nc2c1CCCC2", "note": "[compound 1070]", "class": "2 (Class 2: The value of percent of control at 10^−7 M was from 40% to 60% or the value of IC′50 was from 50 nM to 200 nM.)"}
{"smiles": "CN(C)c1nc(N[C@H]2CC[C@@H](CNC(=O)c3ccccc3Cc3ccccc3)CC2)nc2c1CCCC2", "note": "[compound 1072]", "class": "3 (Class 3 The value of percent of control at 10^−7 M was more than 60% or the value of IC50 was more than 200 nM.)"}
{"smiles": "CN(C)c1nc(N[C@H]2CC[C@@H](CNC(=O)C(c3ccc(Cl)cc3)c3ccc(Cl)cc3)CC2)nc2c1CCCC2", "note": "[compound 1073]", "class": "3 (Class 3 The value of percent of control at 10^−7 M was more than 60% or the value of IC50 was more than 200 nM.)"}
{"smiles": "Cc1ccc(-c2ccc(C(=O)NC[C@H]3CC[C@@H](Nc4nc5c(c(N(C)C)n4)CCCC5)CC3)o2)c([N+](=O)[O-])c1", "note": "[compound 1074]", "class": "3 (Class 3 The value of percent of control at 10^−7 M was more than 60% or the value of IC50 was more than 200 nM.)"}
{"smiles": "CN(C)c1nc(N[C@H]2CC[C@@H](CNC(=O)c3ccc([N+](=O)[O-])s3)CC2)nc2c1CCCC2", "note": "[compound 1075]", "class": "3 (Class 3 The value of percent of control at 10^−7 M was more than 60% or the value of IC50 was more than 200 nM.)"}
{"smiles": "Cc1cc(C(=O)NC[C@H]2CC[C@@H](Nc3nc4c(c(N(C)C)n3)CCCC4)CC2)ccc1[N+](=O)[O-]", "note": "[compound 1076]", "class": "3 (Class 3 The value of percent of control at 10^−7 M was more than 60% or the value of IC50 was more than 200 nM.)"}
{"smiles": "COc1cc(C(=O)NC[C@H]2CC[C@@H](Nc3nc4c(c(N(C)C)n3)CCCC4)CC2)ccc1[N+](=O)[O-]", "note": "[compound 1077]", "class": "3 (Class 3 The value of percent of control at 10^−7 M was more than 60% or the value of IC50 was more than 200 nM.)"}
{"smiles": "CN(C)c1nc(N[C@H]2CC[C@@H](CNC(=O)c3cn(Cc4ccccc4)c4ccccc34)CC2)nc2c1CCCC2", "note": "[compound 1078]", "class": "3 (Class 3 The value of percent of control at 10^−7 M was more than 60% or the value of IC50 was more than 200 nM.)"}
{"smiles": "CN(C)c1nc(N[C@H]2CC[C@@H](CNC(=O)CC3=CCCCC3)CC2)nc2c1CCCC2", "note": "[compound 1079]", "class": "3 (Class 3 The value of percent of control at 10^−7 M was more than 60% or the value of IC50 was more than 200 nM.)"}
{"smiles": "CN(C)c1nc(N[C@H]2CC[C@@H](CNC(=O)Cc3ccccc3OC(F)(F)F)CC2)nc2c1CCCC2", "note": "[compound 1081]", "class": "3 (Class 3 The value of percent of control at 10^−7 M was more than 60% or the value of IC50 was more than 200 nM.)"}
{"smiles": "Cc1cc(C(=O)NC[C@H]2CC[C@@H](Nc3nc4c(c(N(C)C)n3)CCCC4)CC2)cc(C)c1OCc1ccccc1", "note": "[compound 1082]", "class": "3 (Class 3 The value of percent of control at 10^−7 M was more than 60% or the value of IC50 was more than 200 nM.)"}
{"smiles": "CN(C)c1nc(N[C@H]2CC[C@@H](CNC(=O)C3c4ccccc4Oc4ccccc43)CC2)nc2c1CCCC2", "note": "[compound 1083]", "class": "3 (Class 3 The value of percent of control at 10^−7 M was more than 60% or the value of IC50 was more than 200 nM.)"}
{"smiles": "CN(C)c1nc(N[C@H]2CC[C@@H](CNC(=O)Cc3csc4ccccc34)CC2)nc2c1CCCC2", "note": "[compound 1084]", "class": "3 (Class 3 The value of percent of control at 10^−7 M was more than 60% or the value of IC50 was more than 200 nM.)"}
{"smiles": "COc1cccc(OC)c1CN[C@H]1CC[C@@H](Nc2cc(N(C)C)c3ccccc3n2)CC1", "note": "[compound 1085]", "class": "3 (Class 3 The value of percent of control at 10^−7 M was more than 60% or the value of IC50 was more than 200 nM.)"}
{"smiles": "CCOc1ccccc1CN[C@H]1CC[C@@H](Nc2cc(N(C)C)c3ccccc3n2)CC1", "note": "[compound 1086]", "class": "3 (Class 3 The value of percent of control at 10^−7 M was more than 60% or the value of IC50 was more than 200 nM.)"}
{"smiles": "CN(C)c1cc(N[C@H]2CC[C@@H](NCc3c[nH]c4ccccc34)CC2)nc2ccccc12", "note": "[compound 1087]", "class": "3 (Class 3 The value of percent of control at 10^−7 M was more than 60% or the value of IC50 was more than 200 nM.)"}
{"smiles": "COc1ccc(OC)c(CN[C@H]2CC[C@@H](Nc3cc(N(C)C)c4ccccc4n3)CC2)c1", "note": "[compound 1088]", "class": "3 (Class 3 The value of percent of control at 10^−7 M was more than 60% or the value of IC50 was more than 200 nM.)"}
{"smiles": "COc1ccc(CN[C@H]2CC[C@@H](Nc3cc(N(C)C)c4ccccc4n3)CC2)c2ccccc12", "note": "[compound 1089]", "class": "3 (Class 3 The value of percent of control at 10^−7 M was more than 60% or the value of IC50 was more than 200 nM.)"}
{"smiles": "COc1ccc2[nH]cc(CN[C@H]3CC[C@@H](Nc4cc(N(C)C)c5ccccc5n4)CC3)c2c1", "note": "[compound 1090]", "class": "3 (Class 3 The value of percent of control at 10^−7 M was more than 60% or the value of IC50 was more than 200 nM.)"}
{"smiles": "COc1ccc2ccccc2c1CN[C@H]1CC[C@@H](Nc2cc(N(C)C)c3ccccc3n2)CC1", "note": "[compound 1091]", "class": "3 (Class 3 The value of percent of control at 10^−7 M was more than 60% or the value of IC50 was more than 200 nM.)"}
{"smiles": "COc1cc(Br)cc(CN[C@H]2CC[C@@H](Nc3cc(N(C)C)c4ccccc4n3)CC2)c1O", "note": "[compound 1092]", "class": "3 (Class 3 The value of percent of control at 10^−7 M was more than 60% or the value of IC50 was more than 200 nM.)"}
{"smiles": "CN(C)c1cc(N[C@H]2CC[C@@H](NCc3c[nH]c4ccc(Br)cc34)CC2)nc2ccccc12", "note": "[compound 1093]", "class": "3 (Class 3 The value of percent of control at 10^−7 M was more than 60% or the value of IC50 was more than 200 nM.)"}
